Assays:
Type in all cases: cell-based
[1] = test system: human chondrocyte cell line (SW1353); assay: Hyaluronic acid production test (ELISA); settings: positive control 10 mmol/L
Procedure: Using proliferation medium (DMEM/F-12 supplemented with 10% FBS and 1% penicillin-streptomycin mixture), a human chondrocyte cell line (SW1353, ATCC, HTB-94) was seeded into a T-75 flask and cultured in a CO2 incubator until 60-80% confluency. The cells were then detached from the T-75 flask using 0.25% trypsin-EDTA and phenol red. Subsequently, using the proliferation medium, the human chondrocytes were seeded into a 96-well plate at a density of 10,000 cells/100 μL/well and cultured in a CO2 incubator.
The following day, the medium was replaced with 100 μL of assay medium (DMEM/F-12 supplemented with 1% FBS and 1% penicillin-streptomycin mixture), containing each of test substances 1 through 7 at final concentrations of 5% and 20% or a positive control substance at a final concentration of 10 mmol/L, or assay medium without test substances or positive control. The human chondrocytes were cultured in a CO2 incubator for 24 or 72 hours.
The culture supernatant was collected, and the amount of hyaluronic acid was measured using an ELISA kit (Hyaluronan Quantikine ELISA Kit, R&D Systems) and a multi-spectral microplate reader (Varioskan Flash, Thermo Fisher Scientific).

[2] = test system: normal human umbilical vein endothelial cells; assay: Prostacyclin production test (6-keto prostaglandin Fla ELISA); settings: positive control 10 μM, 24 hours
Procedure: Normal human umbilical vein endothelial cells (Lonza, CC2519AS) were seeded into a T-75 flask using medium (EGM-2, Lonza, CC-3162) and cultured in a CO2 incubator until 60% to 80% confluence. The cells were then detached from the T-75 flask using 0.05% trypsin-EDTA and phenol red. The detached cells were seeded into a 96-well plate at 10,000 cells/100 μL/well in medium and cultured in a CO2 incubator. The next day, the medium was replaced with 100 μL of medium containing test substances 1 through 7 at final concentrations of 5% and 20%, and the positive control substance at a final concentration of 10 μM, or medium without test or positive control substances. The cells were then cultured for 24 hours in a CO2 incubator. The culture supernatant was collected, and the amount of 6-keto prostaglandin Fla, a metabolite of prostacyclin, was measured using an ELISA kit (Abcam, ab133023) and a multi-spectral microplate reader (Varioskan Flash, Thermo Fisher Scientific).

[3] = test system: adipocytes differentiated from normal human subcutaneous preadipocytes; assay: Fat-decomposing assay (free glycerol in culture supernatant); settings: positive control 10 μM, 24 hours
Procedure: Normal human subcutaneous preadipocytes (Lonza, PT-5020) were seeded into a T-75 flask using a proliferation medium (PGM-2, 10% FBS, 2 mM L-glutamine, 50 μg/mL gentamicin, and 37 ng/mL amphotericin B-supplemented PBM, Lonza, PT-8002) and cultured in a CO2 incubator (37° C., 5% CO2, humidified) until they reached 60% to 80% confluence. The cells were then detached using 0.25% trypsin-EDTA and centrifuged. Subsequently, the cells were seeded into a 96-well plate at 10,000 cells/100 μL/well in proliferation medium and incubated in a CO2 incubator. The following day, the medium was replaced with 100 μL of differentiation medium (PGM-2 supplemented with insulin, dexamethasone, indomethacin, and isobutyl-methylxanthine; Lonza, PT-8002), and the cells were cultured for seven days to induce differentiation of preadipocytes into adipocytes. […] Thereafter, the culture supernatant was collected, and the amount of free glycerol in the supernatant was measured using a fat-decomposing assay kit (Cayman, 10009381). […] Specifically, a multi-spectral microplate reader (Varioskan Flash, Thermo Fisher Scientific) was used to measure the absorbance of the supernatant at a wavelength of 540 nm, and the relative concentration of free glycerol was calculated. […]

[4] = test system: normal human skeletal muscle myoblasts; assay: Myotube differentiation promotion test (anti-MHC staining, differentiation index); settings: positive control 50 nmol/L, 3 days
Procedure: Using proliferation medium (SkGM-2, Lonza, CC-3245), normal human skeletal muscle myoblasts (Lonza, CC-2580) were seeded into a T-75 flask and cultured in a CO2 incubator until approximately 60% confluence. The cells were then detached from the T-75 flask using 0.05% trypsin-EDTA and phenol red. The detached cells were seeded into a 96-well plate at 7,500 cells/100 μL/well in proliferation medium and cultured in a CO2 incubator.
The next day, the medium was replaced with 100 μL of differentiation medium (2% horse serum-supplemented DMEM: F12) containing test substances 1 through 7 at final concentrations of 5% and 20% and the positive control substance at a final concentration of 50 nmol/L, or differentiation medium without test or positive control substances. The cells were then cultured for 3 days in a CO2 incubator to induce differentiation of myoblasts into myotubes.
Subsequently, the medium was removed from the wells, and 100 μL of 4% paraformaldehyde at 4° C. was added to each well, followed by incubation at 4° C. for 15 minutes to fix the cells. […]
From the captured images, the number of cell nuclei and the number of nuclei positive for myosin heavy chain were measured, and the differentiation index I (%) was calculated according to formula (1) below. […]

CC(=O)N[C@H]1C(O)O[C@H](CO)[C@@H](O)[C@@H]1O (some centres unmarked) [N-acetylglucosamine]
hyaluronic acid production compared to the control ([1]; cultured 24 hours): significantly higher
hyaluronic acid production compared to the control ([1]; cultured 72 hours): significantly higher

CCCCC/C=C\C/C=C\C/C=C\C/C=C\CCCC(=O)O [arachidonic acid]
levels of 6-keto prostaglandin Fla compared to the control [2]: significantly higher

CC(C)NCC(O)c1ccc(O)c(O)c1 (centres unmarked) [isoproterenol]
amount of fat-decomposition (free glycerol) compared to the control [3]: significantly higher

insulin
differentiation index to myotubes compared to the control [4]: significantly higher

Reference: patent publication US20250127821A1, “PHARMACEUTICAL COMPOSITION AND COSMETIC COMPOSITION” (I Peace, Inc., priority 2023, published 2025)
